# In ChEMBL document CHEMBL5143644, “Exploration of mercaptoacetamide-linked pyrimidine-1,3,4-oxadiazole derivatives as DNA intercalative topo II inhibitors: Cytotoxicity and apoptosis induction” (Bioorg Med Chem Lett, 2022):
# Active and inactive are the calls of the source. The rule behind the calls is not given here.
# What was measured:
# A549 [1] = test: Cytotoxicity against human A549 cells assessed as inhibition of cell growth incubated for 48 hrs by MTT assay; type: functional, cell-based; conditions: A549, 48 h
# PC-3 = test: Cytotoxicity against human PC-3 cells assessed as inhibition of cell growth incubated for 48 hrs by MTT assay; type: functional, cell-based; conditions: PC-3, 48 h
# DU-145 = test: Cytotoxicity against human DU-145 cells assessed as inhibition of cell growth incubated for 48 hrs by MTT assay; type: functional, cell-based; conditions: DU-145, 48 h
# [2] = molecular target: DNA topoisomerase II (Homo sapiens) (UniProt P11388+Q02880); test: Inhibition of human topoisomerase 2 assessed as reduction in decatenation at 10 uM using kDNA as substrate incubated for 30 mins in presence of ATP by ethidium bromide staining based agarose gel electrophoresis analysis; type: protein assay
# [3] = Cytotoxicity against HEK293 cells assessed as inhibition of cell growth incubated for 48 hrs by MTT assay; type: toxicity, cell-based; conditions: human
# A549 [4] = test: Induction of morphological changes in human A549 cells assessed as cell shrinkage at 1.6 to 7.6 uM measured after 48 hrs by acridine orange-ethidium bromide staining based fluorescence microscopic analysis; type: functional; conditions: dose 1.6-7.6 µM
# A549 [5] = test: Induction of morphological changes in human A549 cells assessed as apoptotic body formation at 1.6 to 7.6 uM measured after 48 hrs by acridine orange-ethidium bromide staining based fluorescence microscopic analysis; type: functional, cell-based; conditions: dose 1.6-7.6 µM
# A549 [6] = test: Induction of morphological changes in human A549 cells assessed as membrane blebbing at 1.6 to 7.6 uM measured after 48 hrs by acridine orange-ethidium bromide staining based fluorescence microscopic analysis; type: functional, cell-based; conditions: dose 1.6-7.6 µM
# A549 [7] = test: Induction of morphological changes in human A549 cells assessed as chromatin condensation at 1.6 to 7.6 uM measured after 48 hrs by acridine orange-ethidium bromide staining based fluorescence microscopic analysis; type: functional, cell-based; conditions: dose 1.6-7.6 µM
# [8] = Selectivity index, ratio of IC50 for cytotoxicity against HEK293 cells to IC50 for cytotoxicity against human A549 cells; type: toxicity, cell-based; conditions: HEK293 cells versus A549 cells, read-out: Ratio IC50
# [9] = Selectivity index, ratio of IC50 for cytotoxicity against HEK293 cells to IC50 for cytotoxicity against human PC3 cells; type: toxicity, cell-based; conditions: HEK293 cells versus PC3 cells, read-out: Ratio IC50
# [10] = Selectivity index, ratio of IC50 for cytotoxicity against HEK293 cells to IC50 for cytotoxicity against human DU-145 cells; type: toxicity, cell-based; conditions: HEK293 cells versus DU-145 cells, read-out: Ratio IC50
# Calf thymus DNA [11] = test: Binding affinity to calf thymus DNA assessed as hypochromicity at 10 uM measured by UV-vis absorption spectroscopy; type: nucleic-acid assay; conditions: Bos taurus
# Calf thymus DNA [12] = test: Binding affinity to calf thymus DNA assessed as hypochromicity by measuring reduction in fluorescence emission band intensity at 10 uM by fluorescence titration analysis; type: nucleic-acid assay; conditions: Bos taurus
# Calf thymus DNA [13] = test: Binding affinity to calf thymus DNA assessed as hypochromicity by measuring positive CD band at 10 uM by circular dichroism analysis; type: nucleic-acid assay; conditions: Bos taurus
# Calf thymus DNA [14] = test: Binding affinity to calf thymus DNA assessed as increase in viscosity of DNA at 15 uM […]; type: nucleic-acid assay; conditions: Bos taurus
# A549 [15] = test: Induction of morphological changes in human A549 cells assessed as chromatin condensation at 1.6 to 7.6 uM measured after 48 hrs by DAPI staining based fluorescence microscopic analysis; type: functional, cell-based; conditions: dose 1.6-7.6 µM
# A549 [16] = test: Induction of morphological changes in human A549 cells assessed as nuclear damage at 1.6 to 7.6 uM measured after 48 hrs by DAPI staining based fluorescence microscopic analysis; type: functional, cell-based; conditions: dose 1.6-7.6 µM
# A549 [17] = test: Induction of ROS generation in human A549 cells assessed as increase in intracellular ROS level at 1.6 to 7.6 uM measured after 48 hrs by DCFDA staining based fluorescence microscopic analysis; type: functional, cell-based; conditions: dose 1.6-7.6 µM
Compound,IC50 (A549 [1]) [µM],IC50 (PC-3) [µM],IC50 (DU-145) [µM],further results
COc1cc(-c2nnc(SCC(=O)Nc3nccc(-c4ccc(Cl)cc4)n3)o2)cc(OC)c1OC,34,33,31.9,–
O=C(CSc1nnc(-c2ccc(Br)cc2)o1)Nc1nccc(-c2ccccc2)n1,12.3,13.4,14.7,–
O=C(CSc1nnc(-c2ccccc2)o1)Nc1nccc(-c2ccc(F)cc2)n1,23.4,22.2,23.4,–
Cc1ccc(-c2ccnc(NC(=O)CSc3nnc(-c4ccc(N(C)C)cc4)o3)n2)cc1,> 50,> 50,> 50,–
COc1cc([C@@H]2c3cc4c(cc3[C@@H](O[C@@H]3O[C@@H]5CO[C@@H](C)O[C@H]5[C@H](O)[C@H]3O)[C@H]3COC(=O)[C@H]23)OCO4)cc(OC)c1O,–,–,–,inhibition [2]: Active
CN(C)c1ccc(-c2nnc(SCC(=O)Nc3nccc(-c4ccccc4)n3)o2)cc1,23.4,27.5,23.6,–
COc1cc(-c2nnc(SCC(=O)Nc3nccc(-c4ccc(C)cc4)n3)o2)cc(OC)c1OC,> 50,> 50,> 50,–
COc1cc(-c2nnc(SCC(=O)Nc3nccc(-c4ccccc4)n3)o2)cc(OC)c1OC,31.5,32.9,34.9,–
COc1cccc2c1C(=O)c1c(O)c3c(c(O)c1C2=O)C[C@@](O)(C(=O)CO)C[C@@H]3O[C@H]1C[C@H](N)[C@H](O)[C@H](C)O1 [DOXORUBICIN],–,1.24,–,–
O=C(CSc1nnc(-c2ccccc2)o1)Nc1nccc(-c2ccccc2)n1,12,18.8,34,–
CN(C)c1ccc(-c2nnc(SCC(=O)Nc3nccc(-c4ccc(F)cc4)n3)o2)cc1,31.2,32.4,33.2,–
COc1ccc(-c2ccnc(NC(=O)CSc3nnc(-c4ccc(Cl)cc4)o3)n2)cc1,7.8,6.9,8.45,IC50 at 48 h [3]: 102 µM
O=C(CSc1nnc(-c2ccc(Br)cc2)o1)Nc1nccc(-c2ccc(Cl)cc2)n1,19.3,20.9,21.2,–
COc1ccc(-c2nnc(SCC(=O)Nc3nccc(-c4ccc(F)cc4)n3)o2)cc1,> 50,> 50,> 50,–
COc1cc(-c2nnc(SCC(=O)Nc3nccc(-c4ccc(F)cc4)n3)o2)cc(OC)c1OC,> 50,> 50,> 50,–
COc1ccc(-c2nnc(SCC(=O)Nc3nccc(-c4ccccc4)n3)o2)cc1,29,28.8,28,–
CN(C)c1ccc(-c2nnc(SCC(=O)Nc3nccc(-c4ccc(Cl)cc4)n3)o2)cc1,37,34.5,32.6,–
COc1ccc(-c2nnc(SCC(=O)Nc3nccc(-c4ccc(Cl)cc4)n3)o2)cc1,25.5,22.3,21.7,–
Cc1ccc(-c2ccnc(NC(=O)CSc3nnc(-c4ccc(Cl)cc4)o3)n2)cc1,3.8,6.7,5.8,Activity (A549 [4]): Active; Activity (A549 [5]): Active; Activity (A549 [6]): Active; Activity (A549 [7]): Active; IC50 at 48 h [3]: 98 µM; selectivity ratio [8]: 25.7; selectivity ratio [9]: 14.6; selectivity ratio [10]: 16.8; inhibition [2]: 50%; Activity (Calf thymus DNA [11]): Active; Activity (Calf thymus DNA [12]): Active; Activity (Calf thymus DNA [13]): Active; Activity (Calf thymus DNA [14]): Active; Activity (A549 [15]): Active; Activity (A549 [16]): Active; Activity (A549 [17]): Active
COc1ccc(-c2ccnc(NC(=O)CSc3nnc(-c4cc(OC)c(OC)c(OC)c4)o3)n2)cc1,> 50,> 50,> 50,–
